Reference: PubChem BioAssay (NCI)
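Dose response: 5 concentrations. Exposure: 48 h. Format: 96-well plates. Endpoint: linear interpolation; highest concentration if not reached. At the TGI there is no net growth.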

Tests used:
Assay in all cases: NCI tumour cell line growth inhibition, 48 h
786-0 renal = system: 786-0 renal
A498 renal = system: A498 renal
A549 NSCLC = system: A549 NSCLC
ACHN renal = system: ACHN renal
BT-549 breast = system: BT-549 breast
CAKI-1 renal = system: CAKI-1 renal
CCRF-CEM leukemia = system: CCRF-CEM leukemia
COLO 205 colon = system: COLO 205 colon
DLD-1 colon = system: DLD-1 colon
DMS 114 small cell lung = system: DMS 114 small cell lung
DMS 273 small cell lung = system: DMS 273 small cell lung
DU-145 prostate = system: DU-145 prostate
EKVX NSCLC = system: EKVX NSCLC
HCC-2998 colon = system: HCC-2998 colon
HCT-116 colon = system: HCT-116 colon
HCT-15 colon = system: HCT-15 colon
HL-60(TB) leukemia = system: HL-60(TB) leukemia
HOP-62 NSCLC = system: HOP-62 NSCLC
HOP-92 NSCLC = system: HOP-92 NSCLC
HS 578T breast = system: HS 578T breast
HT29 colon = system: HT29 colon
IGROV1 ovarian = system: IGROV1 ovarian
K-562 leukemia = system: K-562 leukemia
KM12 colon = system: KM12 colon
KM20L2 colon = system: KM20L2 colon
LOX IMVI melanoma = system: LOX IMVI melanoma
LXFL 529 NSCLC = system: LXFL 529 NSCLC
M14 melanoma = system: M14 melanoma
M19-MEL melanoma = system: M19-MEL melanoma
MALME-3M melanoma = system: MALME-3M melanoma
MCF7 breast = system: MCF7 breast
MDA-MB-231 breast = system: MDA-MB-231 breast
MDA-MB-435 = system: MDA-MB-435
MDA-N = system: MDA-N
MOLT-4 leukemia = system: MOLT-4 leukemia
NCI-H226 lung = system: NCI-H226 lung
NCI-H23 lung = system: NCI-H23 lung
NCI-H460 lung = system: NCI-H460 lung
NCI-H522 lung = system: NCI-H522 lung
NCI/ADR-RES ovarian = system: NCI/ADR-RES ovarian
OVCAR-3 ovarian = system: OVCAR-3 ovarian
OVCAR-4 ovarian = system: OVCAR-4 ovarian
OVCAR-5 ovarian = system: OVCAR-5 ovarian
OVCAR-8 ovarian = system: OVCAR-8 ovarian
PC-3 prostate = system: PC-3 prostate
RPMI-8226 leukemia = system: RPMI-8226 leukemia
RXF 393 renal = system: RXF 393 renal
RXF-631 renal = system: RXF-631 renal
SF-268 CNS = system: SF-268 CNS
SF-295 CNS = system: SF-295 CNS
SF-539 CNS = system: SF-539 CNS
SK-MEL-2 melanoma = system: SK-MEL-2 melanoma
SK-MEL-28 melanoma = system: SK-MEL-28 melanoma
SK-MEL-5 melanoma = system: SK-MEL-5 melanoma
SK-OV-3 ovarian = system: SK-OV-3 ovarian
SN12C renal = system: SN12C renal
SNB-19 CNS = system: SNB-19 CNS
SNB-75 CNS = system: SNB-75 CNS
SNB-78 CNS = system: SNB-78 CNS
SR leukemia = system: SR leukemia
SW-620 colon = system: SW-620 colon
T-47D breast = system: T-47D breast
TK-10 renal = system: TK-10 renal
U251 CNS = system: U251 CNS
UACC-257 melanoma = system: UACC-257 melanoma
UACC-62 melanoma = system: UACC-62 melanoma
UO-31 renal = system: UO-31 renal
HOP-18 NSCLC = system: HOP-18 NSCLC
XF 498 CNS = system: XF 498 CNS

For `COC1=CC(=O)c2c(ccc3ncnc(N)c23)C1=O`, the TGI (786-0 renal) was 3.35 µM, the TGI (A498 renal) was 3.9 µM and the TGI (A549 NSCLC) was 8.75 µM. For the same compound, the TGI (ACHN renal) was 3.16 µM, the TGI (BT-549 breast) was 3.2 µM and the TGI (CAKI-1 renal) was 3.27 µM. For the same compound, the TGI (CCRF-CEM leukemia) was 1.95 µM, the TGI (COLO 205 colon) was 6.77 µM and the TGI (DLD-1 colon) was 4.44 µM. It also gave a TGI (DMS 114 small cell lung) of 3.43 µM, a TGI (DMS 273 small cell lung) of 10.7 µM and a TGI (DU-145 prostate) of 3.34 µM. The TGI (EKVX NSCLC) was 4.03 µM, the TGI (HCC-2998 colon) was 15.1 µM and the TGI (HCT-116 colon) was 3.33 µM. The TGI (HCT-15 colon) was 4.13 µM, the TGI (HL-60(TB) leukemia) was 1.49 µM and the TGI (HOP-62 NSCLC) was 6.54 µM. It also gave a TGI (HOP-92 NSCLC) of 4 µM, a TGI (HS 578T breast) of 7.52 µM and a TGI (HT29 colon) of 4.44 µM. The TGI (IGROV1 ovarian) was 3.41 µM, the TGI (K-562 leukemia) was 1.58 µM and the TGI (KM12 colon) was 11.3 µM. For the same compound, the TGI (KM20L2 colon) was 34.7 µM, the TGI (LOX IMVI melanoma) was 2.68 µM and the TGI (LXFL 529 NSCLC) was 3.2 µM. For the same compound, the TGI (M14 melanoma) was 3.38 µM, the TGI (M19-MEL melanoma) was 3.14 µM and the TGI (MALME-3M melanoma) was 5.43 µM. The TGI (MCF7 breast) was 4.12 µM, the TGI (MDA-MB-231 breast) was 4.8 µM and the TGI (MDA-MB-435) was 0.646 µM. For the same compound, the TGI (MDA-N) was 0.889 µM, the TGI (MOLT-4 leukemia) was 1.5 µM and the TGI (NCI-H226 lung) was 4.6 µM. For the same compound, the TGI (NCI-H23 lung) was 3.76 µM, the TGI (NCI-H460 lung) was 12.6 µM and the TGI (NCI-H522 lung) was 5.62 µM. For the same compound, the TGI (NCI/ADR-RES ovarian) was 6.39 µM, the TGI (OVCAR-3 ovarian) was 3.03 µM and the TGI (OVCAR-4 ovarian) was 1.28 µM. For the same compound, the TGI (OVCAR-5 ovarian) was 3.81 µM, the TGI (OVCAR-8 ovarian) was 7.59 µM and the TGI (PC-3 prostate) was 6.53 µM. It also gave a TGI (RPMI-8226 leukemia) of 3.62 µM, a TGI (RXF 393 renal) of 3.3 µM and a TGI (RXF-631 renal) of 16.4 µM. It also gave a TGI (SF-268 CNS) of 6.72 µM, a TGI (SF-295 CNS) of 6.76 µM and a TGI (SF-539 CNS) of 3.41 µM. For the same compound, the TGI (SK-MEL-2 melanoma) was 7.08 µM, the TGI (SK-MEL-28 melanoma) was 4.94 µM and the TGI (SK-MEL-5 melanoma) was 3.12 µM. For the same compound, the TGI (SK-OV-3 ovarian) was 16.3 µM, the TGI (SN12C renal) was 3.42 µM and the TGI (SNB-19 CNS) was 5.47 µM. It also gave a TGI (SNB-75 CNS) of 6.62 µM, a TGI (SNB-78 CNS) of 4.89 µM and a TGI (SR leukemia) of 0.631 µM. For the same compound, the TGI (SW-620 colon) was 4.03 µM, the TGI (T-47D breast) was 3.42 µM and the TGI (TK-10 renal) was 8.75 µM. It also gave a TGI (U251 CNS) of 3.39 µM, a TGI (UACC-257 melanoma) of 3.69 µM and a TGI (UACC-62 melanoma) of 3.42 µM. The TGI (UO-31 renal) was 5.09 µM.

Compound `CCNCCCCNCCCCNCCCCNCCCCNCC` has a TGI (786-0 renal) of 98.6 µM, a TGI (A498 renal) greater than 100 µM and a TGI (A549 NSCLC) greater than 100 µM. The TGI (ACHN renal) was greater than 100 µM, the TGI (BT-549 breast) was greater than 100 µM and the TGI (CAKI-1 renal) was greater than 73.1 µM. For the same compound, the TGI (CCRF-CEM leukemia) was greater than 100 µM, the TGI (COLO 205 colon) was greater than 100 µM and the TGI (DLD-1 colon) was greater than 100 µM. The TGI (DMS 114 small cell lung) was greater than 100 µM, the TGI (DMS 273 small cell lung) was greater than 100 µM and the TGI (DU-145 prostate) was greater than 100 µM. For the same compound, the TGI (EKVX NSCLC) was greater than 100 µM, the TGI (HCC-2998 colon) was greater than 100 µM and the TGI (HCT-116 colon) was greater than 100 µM. It also gave a TGI (HCT-15 colon) greater than 100 µM, a TGI (HL-60(TB) leukemia) greater than 100 µM and a TGI (HOP-18 NSCLC) greater than 100 µM. It also gave a TGI (HOP-62 NSCLC) greater than 100 µM, a TGI (HOP-92 NSCLC) greater than 100 µM and a TGI (HS 578T breast) of 26.3 µM. The TGI (HT29 colon) was greater than 100 µM, the TGI (IGROV1 ovarian) was greater than 100 µM and the TGI (K-562 leukemia) was greater than 100 µM. For the same compound, the TGI (KM12 colon) was greater than 100 µM, the TGI (KM20L2 colon) was greater than 100 µM and the TGI (LOX IMVI melanoma) was greater than 100 µM. For the same compound, the TGI (LXFL 529 NSCLC) was greater than 100 µM, the TGI (M14 melanoma) was greater than 100 µM and the TGI (M19-MEL melanoma) was greater than 100 µM. For the same compound, the TGI (MALME-3M melanoma) was 31.5 µM, the TGI (MCF7 breast) was greater than 100 µM and the TGI (MDA-MB-231 breast) was greater than 100 µM. The TGI (MDA-MB-435) was 38.6 µM, the TGI (MDA-N) was 61.8 µM and the TGI (MOLT-4 leukemia) was greater than 100 µM. The TGI (NCI-H226 lung) was greater than 100 µM, the TGI (NCI-H23 lung) was greater than 100 µM and the TGI (NCI-H460 lung) was greater than 100 µM. For the same compound, the TGI (NCI-H522 lung) was greater than 100 µM, the TGI (NCI/ADR-RES ovarian) was greater than 100 µM and the TGI (OVCAR-3 ovarian) was greater than 100 µM. The TGI (OVCAR-4 ovarian) was greater than 100 µM, the TGI (OVCAR-5 ovarian) was greater than 100 µM and the TGI (OVCAR-8 ovarian) was greater than 100 µM. It also gave a TGI (PC-3 prostate) greater than 100 µM, a TGI (RPMI-8226 leukemia) greater than 100 µM and a TGI (RXF 393 renal) greater than 52.6 µM. For the same compound, the TGI (SF-268 CNS) was greater than 77.7 µM, the TGI (SF-295 CNS) was greater than 100 µM and the TGI (SF-539 CNS) was greater than 100 µM. It also gave a TGI (SK-MEL-2 melanoma) greater than 100 µM, a TGI (SK-MEL-28 melanoma) of 52.6 µM and a TGI (SK-MEL-5 melanoma) greater than 100 µM. For the same compound, the TGI (SK-OV-3 ovarian) was greater than 100 µM, the TGI (SN12C renal) was greater than 100 µM and the TGI (SNB-19 CNS) was greater than 100 µM. It also gave a TGI (SNB-75 CNS) of 78.4 µM, a TGI (SNB-78 CNS) greater than 100 µM and a TGI (SR leukemia) greater than 100 µM. The TGI (SW-620 colon) was greater than 100 µM, the TGI (T-47D breast) was greater than 100 µM and the TGI (TK-10 renal) was greater than 56.2 µM. For the same compound, the TGI (U251 CNS) was greater than 100 µM, the TGI (UACC-257 melanoma) was 81.3 µM and the TGI (UACC-62 melanoma) was 43.8 µM. It also gave a TGI (UO-31 renal) greater than 100 µM and a TGI (XF 498 CNS) greater than 100 µM.
